Results taken from article PMC11171525 (Cells, 2024).
Like-named read-outs stand apart in the source and are kept apart here. Values belong to the molecule of their own block, whether it stands above or below them.

Key:
PpCM1 = assay: CM activity assay, recombinant PpCM1 (disappearance of chorismate at 274 nm); format: biochemical, Pinus pinaster; settings: for impact on activity (activation or inhibition), effector screening: threshold […] (Figure S2)
Procedure: (§1) Similarly, the effect on CM activity of decreasing concentrations of the amino acids Phe, Tyr, and Trp was determined.
(§2) To study their catalytic properties, P. pinaster PpCM1 and PpCM2 were functionally expressed in E. coli, including N-terminal His-tags, lacking the predicted chloroplast signal peptides, and were subsequently purified with Ni^2+-affinity chromatography.

PpCM2 = assay: CM activity assay, recombinant PpCM2 (disappearance of chorismate at 274 nm); format: biochemical, Pinus pinaster; settings: for impact on activity (activation or inhibition), effector screening: threshold […] (Figure S2)
Procedure: as §1, §2

CMs from mosses = settings: substrate chorismate; ref [30]; cited from earlier work
CMs from lycophytes = settings: substrate chorismate; ref [30]; cited from earlier work
[1] = 2 mM amino acid, 1 mM chorismate
[2] = inhibition of CM activity by Phe, read-out: EC50 (Phe)
[3] = activation of CM activity by Trp, read-out: EC50 (Trp)
[4] = substrate chorismate, 50 mM Tris pH 8, 30 °C
[5] = substrate chorismate, turnover rate

EC50 (PpCM1; [2]): 36 µM | EC50 (PpCM2; [2]): 88 µM
Compound: N[C@@H](Cc1ccccc1)C(=O)O [Phe, phenylalanine]
reduction in activity compared to controls (PpCM1; [1]): 9.6 fold | impact on activity (activation or inhibition), effector screening (PpCM1; 2 mM amino acid): > 1.5 fold | reduction in activity compared to controls (PpCM2; [1]): 3 fold | impact on activity (activation or inhibition), effector screening (PpCM2; 2 mM amino acid): > 1.5 fold | retained activity (PpCM2; in the presence of 2 mM Phe): 30–35%

Compound: N[C@@H](Cc1c[nH]c2ccccc12)C(=O)O [Trp, tryptophan]
increase in activity (PpCM1; [1]): 3.1 fold | impact on activity (activation or inhibition), effector screening (PpCM1; 2 mM amino acid): > 1.5 fold | EC50 (PpCM1; [3]): ~0.1 µM | increase in activity (PpCM2; [1]): 1.7 fold | impact on activity (activation or inhibition), effector screening (PpCM2; 2 mM amino acid): > 1.5 fold | EC50 (PpCM2; [3]): ~0.1 µM

Compound: N[C@@H](Cc1ccc(O)cc1)C(=O)O [Tyr, tyrosine]
reduction in activity compared to controls (PpCM1; [1]): 11.4 fold | impact on activity (activation or inhibition), effector screening (PpCM1; 2 mM amino acid): > 1.5 fold | reduction in activity compared to controls (PpCM2; [1]): 10.1 fold | impact on activity (activation or inhibition), effector screening (PpCM2; 2 mM amino acid): > 1.5 fold

Km (PpCM1; [4]): 1600 µM | Km (PpCM2; [4]): 1700 µM
Compound: C=C(O[C@@H]1C=C(C(=O)O)C=C[C@H]1O)C(=O)O [chorismate]
Kcat (PpCM1; [5]): 29.4 s⁻¹ | Kcat (PpCM2; [5]): 35 s⁻¹ | Kcat (CMs from mosses): 19.5 to 20.7 s⁻¹ | Kcat (CMs from lycophytes): 18.8 s⁻¹
